Data from patent publication US9302999B2, “Substituted triazoles as herbicides” (E. I. DU PONT DE NEMOURS AND COMPANY, priority 2012, dated 2016).

Key:
Format in all cases: in vivo
corn (Zea mays) = experiment: Test A pre-/postemergence: corn; conditions: for Corn plant response rating: Postemergence; for Plant response rating, Corn: Preemergence
Procedure, shortened: (§1)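 Soil medium was loam blended with sand; treatments pre- and postemergence were applied concurrently, postemergence at one- to two-leaf stage. Approximately ten days in greenhouse preceded visual comparison with untreated controls, scored 0 (no effect) to 100 (complete control).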

[1] = test system: crabgrass, large (large crabgrass, Digitaria sanguinalis); experiment: Test A pre-/postemergence: crabgrass, large; conditions: for Crabgrass, Large plant response rating: Postemergence; for Plant response rating, Crabgrass, Large: Preemergence
Procedure, shortened: as §1

[2] = test system: morningglory (Ipomoea spp.); experiment: Test A pre-/postemergence: morningglory; conditions: for Morningglory plant response rating: Postemergence; for Plant response rating, Morningglory: Preemergence
Procedure, shortened: as §1

[3] = test system: wheat (Triticum aestivum); experiment: Test A pre-/postemergence: wheat; conditions: for Wheat plant response rating: Postemergence; for Plant response rating, Wheat: Preemergence
Procedure, shortened: as §1

[4] = test system: barnyardgrass (Echinochloa crus-galli); experiment: Test C flooded paddy test: barnyardgrass; conditions: scale 0 to 100 (0 no effect, 100 complete control)
Procedure, shortened: (§2)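 Plants were grown to the 2-leaf stage, pots flooded to 3 cm above soil, and test compounds applied directly to the paddy water, with that depth held throughout. After 13 to 15 days in a greenhouse, injury was visually rated against controls on a 0 (no effect) to 100 (complete control) scale.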

[5] = test system: pigweed (Amaranthus retroflexus); experiment: Test A pre-/postemergence: pigweed; conditions: for Pigweed plant response rating: Postemergence; for Plant response rating, Pigweed: Preemergence
Procedure, shortened: as §1

rice (Oryza sativa) = experiment: Test C flooded paddy test: rice; conditions: scale 0 to 100 (0 no effect, 100 complete control)
Procedure, shortened: as §2

[6] = test system: foxtail, giant (giant foxtail, Setaria faberii); experiment: Test A pre-/postemergence: foxtail, giant; conditions: for Foxtail, Giant plant response rating: Postemergence; for Plant response rating, Foxtail, Giant: Preemergence
Procedure, shortened: as §1

[7] = test system: ducksalad (Heteranthera limosa); experiment: Test C flooded paddy test: ducksalad; conditions: scale 0 to 100 (0 no effect, 100 complete control)
Procedure, shortened: as §2

[8] = test system: velvetleaf (Abutilon theophrasti); experiment: Test A pre-/postemergence: velvetleaf; conditions: for Velvetleaf plant response rating: Postemergence; for Plant response rating, Velvetleaf: Preemergence
Procedure, shortened: as §1

[9] = test system: barnyardgrass (Echinochloa crus-galli); experiment: Test A pre-/postemergence: barnyardgrass; conditions: for Barnyardgrass plant response rating: Postemergence; for Plant response rating, Barnyardgrass: Preemergence
Procedure, shortened: as §1

[10] = test system: sedge, umbrella (small-flower umbrella sedge, Cyperus difformis); experiment: Test C flooded paddy test: sedge, umbrella; conditions: scale 0 to 100 (0 no effect, 100 complete control)
Procedure, shortened: as §2

[11] = 125 g ai/ha, 0 to 100 scale, 0 is no effect, 100 is complete control
[12] = 500 g ai/ha, visual rating on 0 to 100 scale (0 no effect, 100 complete control), approximately ten days
[13] = 125 g ai/ha, 0 to 100 scale (0 no effect, 100 complete control)
[14] = 500 g ai/ha, 0 to 100 scale, 0 is no effect, 100 is complete control
[15] = Flood (flooded paddy test), 62 g ai/ha, visual rating after 13 to 15 days
[16] = Flood (flooded paddy test), 125 g ai/ha, visual rating after 13 to 15 days
[17] = Flood (flooded paddy test), 250 g ai/ha, visual rating after 13 to 15 days

## COc1nn(-c2ccc(C(F)(F)F)cc2)nc1Cn1nc(C(F)(F)F)cc1C(F)(F)F [Compound 30]
Corn (Zea mays); [11]
  Corn plant response rating: 0
Corn (Zea mays); [12]
  Corn plant response rating: 0
Corn (Zea mays); [13]
  Plant response rating, Corn: 0
Corn (Zea mays); [14]
  Plant response rating, Corn: 0
[1]; [11]
  Crabgrass, Large plant response rating: 0
[1]; [12]
  Crabgrass, Large plant response rating: 0
[1]; [13]
  Plant response rating, Crabgrass, Large: 0
[1]; [14]
  Plant response rating, Crabgrass, Large: 0
[2]; [11]
  Morningglory plant response rating: 0
[2]; [12]
  Morningglory plant response rating: 0
[2]; [13]
  Plant response rating, Morningglory: 0
[2]; [14]
  Plant response rating, Morningglory: 0
[3]; [11]
  Wheat plant response rating: 0
[3]; [12]
  Wheat plant response rating: 0
[3]; [13]
  Plant response rating, Wheat: 0
[3]; [14]
  Plant response rating, Wheat: 0
[4]; [15]
  Plant response rating, Barnyardgrass: 0
[4]; [16]
  Plant response rating, Barnyardgrass: 0
[4]; [17]
  Plant response rating, Barnyardgrass: 0
[4]; Flood, 31 g ai/ha
  Plant response rating, Barnyardgrass: 0
[5]; [11]
  Pigweed plant response rating: 0
[5]; [12]
  Pigweed plant response rating: 0
[5]; [13]
  Plant response rating, Pigweed: 0
[5]; [14]
  Plant response rating, Pigweed: 0
Rice (Oryza sativa); [15]
  Plant response rating, Rice: 0
Rice (Oryza sativa); [16]
  Plant response rating, Rice: 0
Rice (Oryza sativa); [17]
  Plant response rating, Rice: 0
Rice (Oryza sativa); Flood, 31 g ai/ha
  Plant response rating, Rice: 0
[6]; [11]
  Foxtail, Giant plant response rating: 0
[6]; [12]
  Foxtail, Giant plant response rating: 0
[6]; [13]
  Plant response rating, Foxtail, Giant: 0
[6]; [14]
  Plant response rating, Foxtail, Giant: 0
[7]; [15]
  Plant response rating, Ducksalad: 0
[7]; [16]
  Plant response rating, Ducksalad: 0
[7]; [17]
  Plant response rating, Ducksalad: 0
[7]; Flood, 31 g ai/ha
  Plant response rating, Ducksalad: 0
[8]; [11]
  Velvetleaf plant response rating: 0
[8]; [12]
  Velvetleaf plant response rating: 0
[8]; [13]
  Plant response rating, Velvetleaf: 0
[8]; [14]
  Plant response rating, Velvetleaf: 0
[9]; [11]
  Barnyardgrass plant response rating: 0
[9]; [12]
  Barnyardgrass plant response rating: 0
[9]; [13]
  Plant response rating, Barnyardgrass: 0
[9]; [14]
  Plant response rating, Barnyardgrass: 0
[10]; [15]
  Plant response rating, Sedge, Umbrella: 0
[10]; [16]
  Plant response rating, Sedge, Umbrella: 20
[10]; [17]
  Plant response rating, Sedge, Umbrella: 30
[10]; Flood, 31 g ai/ha
  Plant response rating, Sedge, Umbrella: 0

## COc1cc(Cc2nn(-c3ccc(C(F)(F)F)cc3)nc2C)ccn1 [Compound 31]
Corn (Zea mays); [11]
  Corn plant response rating: 10
Corn (Zea mays); [12]
  Corn plant response rating: 20
Corn (Zea mays); [13]
  Plant response rating, Corn: 0
Corn (Zea mays); [14]
  Plant response rating, Corn: 0
[1]; [11]
  Crabgrass, Large plant response rating: 10
[1]; [12]
  Crabgrass, Large plant response rating: 50
[1]; [13]
  Plant response rating, Crabgrass, Large: 0
[1]; [14]
  Plant response rating, Crabgrass, Large: 60
[2]; [11]
  Morningglory plant response rating: 20
[2]; [12]
  Morningglory plant response rating: 100
[2]; [13]
  Plant response rating, Morningglory: 0
[2]; [14]
  Plant response rating, Morningglory: 0
[3]; [11]
  Wheat plant response rating: 0
[3]; [12]
  Wheat plant response rating: 10
[3]; [13]
  Plant response rating, Wheat: 0
[3]; [14]
  Plant response rating, Wheat: 0
[4]; [15]
  Plant response rating, Barnyardgrass: 0
[4]; [16]
  Plant response rating, Barnyardgrass: 0
[4]; [17]
  Plant response rating, Barnyardgrass: 0
[4]; Flood, 31 g ai/ha
  Plant response rating, Barnyardgrass: 0
[5]; [11]
  Pigweed plant response rating: 60
[5]; [12]
  Pigweed plant response rating: 90
[5]; [13]
  Plant response rating, Pigweed: 0
[5]; [14]
  Plant response rating, Pigweed: 50
Rice (Oryza sativa); [15]
  Plant response rating, Rice: 0
Rice (Oryza sativa); [16]
  Plant response rating, Rice: 0
Rice (Oryza sativa); [17]
  Plant response rating, Rice: 0
Rice (Oryza sativa); Flood, 31 g ai/ha
  Plant response rating, Rice: 0
[6]; [11]
  Foxtail, Giant plant response rating: 10
[6]; [12]
  Foxtail, Giant plant response rating: 50
[6]; [13]
  Plant response rating, Foxtail, Giant: 30
[6]; [14]
  Plant response rating, Foxtail, Giant: 90
[7]; [15]
  Plant response rating, Ducksalad: 0
[7]; [16]
  Plant response rating, Ducksalad: 0
[7]; [17]
  Plant response rating, Ducksalad: 0
[7]; Flood, 31 g ai/ha
  Plant response rating, Ducksalad: 0
[8]; [11]
  Velvetleaf plant response rating: 10
[8]; [12]
  Velvetleaf plant response rating: 20
[8]; [13]
  Plant response rating, Velvetleaf: 0
[8]; [14]
  Plant response rating, Velvetleaf: 0
[9]; [11]
  Barnyardgrass plant response rating: 10
[9]; [12]
  Barnyardgrass plant response rating: 10
[9]; [13]
  Plant response rating, Barnyardgrass: 0
[9]; [14]
  Plant response rating, Barnyardgrass: 0
[10]; [15]
  Plant response rating, Sedge, Umbrella: 0
[10]; [16]
  Plant response rating, Sedge, Umbrella: 0
[10]; [17]
  Plant response rating, Sedge, Umbrella: 0
[10]; Flood, 31 g ai/ha
  Plant response rating, Sedge, Umbrella: 0
